Test results: paper PMC10174618, “Monoterpenoid aryl hydrocarbon receptor allosteric antagonists protect against ultraviolet skin damage in female mice” (Nature Communications, 2023)

Experiments:
Assay in all cases: biochemical
Parameters in all cases: KINOMEscan scanMAX active site-directed competition binding assay, percent of control, 468 kinases
Conditions in all cases: competition binding, percent of control
[1] = molecular target: T1, ERK2 (Homo sapiens, UniProt P28482)
T1 construct: gene MAPK1
T1 sequence (P28482 whole entry): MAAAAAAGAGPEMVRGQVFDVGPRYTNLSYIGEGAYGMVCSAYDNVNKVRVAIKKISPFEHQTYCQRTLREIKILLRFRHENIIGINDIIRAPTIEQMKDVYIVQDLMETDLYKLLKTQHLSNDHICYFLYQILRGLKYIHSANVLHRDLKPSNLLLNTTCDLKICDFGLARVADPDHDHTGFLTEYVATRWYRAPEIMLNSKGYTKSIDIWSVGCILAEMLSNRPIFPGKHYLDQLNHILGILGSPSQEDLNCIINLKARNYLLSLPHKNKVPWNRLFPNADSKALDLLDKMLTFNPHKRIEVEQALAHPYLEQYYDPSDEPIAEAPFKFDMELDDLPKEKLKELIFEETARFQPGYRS
How it was run: (§1)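 KINOMEscan active site-directed competition binding assay against 468 human kinases with 100 μM S-carvone. Binding expressed as % of control, with 35% of control as the inhibition threshold.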

[2] = molecular target: T2, ABL1(Q252H)-phosphorylated (Homo sapiens, UniProt P00519, Q252H)
T2 construct: phosphorylated
How it was run: as §1

[3] = molecular target: CDKL5 (Homo sapiens, UniProt O76039)
Chain of CDKL5 (O76039 whole entry): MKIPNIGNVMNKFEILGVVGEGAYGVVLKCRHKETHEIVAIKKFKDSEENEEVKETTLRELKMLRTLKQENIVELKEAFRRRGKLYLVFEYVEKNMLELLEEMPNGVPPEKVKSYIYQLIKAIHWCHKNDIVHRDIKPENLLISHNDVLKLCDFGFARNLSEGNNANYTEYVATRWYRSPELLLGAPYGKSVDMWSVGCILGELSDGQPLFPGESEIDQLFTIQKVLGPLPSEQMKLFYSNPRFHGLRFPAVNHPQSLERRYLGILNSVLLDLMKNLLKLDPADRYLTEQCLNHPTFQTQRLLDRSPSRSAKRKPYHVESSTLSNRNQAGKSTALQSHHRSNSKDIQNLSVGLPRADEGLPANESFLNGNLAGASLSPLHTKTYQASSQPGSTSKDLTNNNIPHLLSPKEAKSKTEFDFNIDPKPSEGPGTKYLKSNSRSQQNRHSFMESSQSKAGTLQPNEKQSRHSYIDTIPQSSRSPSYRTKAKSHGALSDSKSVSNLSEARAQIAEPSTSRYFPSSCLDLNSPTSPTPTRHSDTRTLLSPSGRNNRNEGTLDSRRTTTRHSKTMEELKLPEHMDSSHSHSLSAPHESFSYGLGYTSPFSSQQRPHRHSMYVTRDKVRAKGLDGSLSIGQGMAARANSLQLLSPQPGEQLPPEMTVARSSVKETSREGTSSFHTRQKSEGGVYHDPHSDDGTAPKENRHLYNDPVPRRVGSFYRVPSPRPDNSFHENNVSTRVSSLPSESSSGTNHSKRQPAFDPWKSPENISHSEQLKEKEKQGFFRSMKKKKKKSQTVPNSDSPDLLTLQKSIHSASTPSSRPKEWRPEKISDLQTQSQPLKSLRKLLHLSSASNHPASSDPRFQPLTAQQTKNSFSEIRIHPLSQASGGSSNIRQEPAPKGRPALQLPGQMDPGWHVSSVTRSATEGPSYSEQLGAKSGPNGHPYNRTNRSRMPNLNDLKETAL
How it was run: as §1

[4] = molecular target: PIK3C2G (Homo sapiens, UniProt O75747)
How it was run: as §1

[5] = molecular target: DDR1 (Homo sapiens, UniProt Q08345)
How it was run: as §1

[6] = molecular target: BRAF(V600E) (Homo sapiens, UniProt P15056, V600E)
How it was run: as §1

[7] = molecular target: CAMK2D (Homo sapiens, UniProt Q13557)
How it was run: as §1

[8] = molecular target: KIT(D816H) (Homo sapiens, UniProt P10721, D816H)
How it was run: as §1

[9] = molecular target: PRKD3 (Homo sapiens, UniProt O94806)
How it was run: as §1

[10] = molecular target: T3, RPS6KA5(Kin.Dom.1-N-terminal) (Homo sapiens, UniProt O75582)
T3 construct: Kin.Dom.1-N-terminal
How it was run: as §1

[11] = molecular target: TGFBR2 (Homo sapiens, UniProt P37173)
How it was run: as §1

[12] = molecular target: PRKCQ (Homo sapiens, UniProt Q04759)
Chain of PRKCQ (Q04759 whole entry): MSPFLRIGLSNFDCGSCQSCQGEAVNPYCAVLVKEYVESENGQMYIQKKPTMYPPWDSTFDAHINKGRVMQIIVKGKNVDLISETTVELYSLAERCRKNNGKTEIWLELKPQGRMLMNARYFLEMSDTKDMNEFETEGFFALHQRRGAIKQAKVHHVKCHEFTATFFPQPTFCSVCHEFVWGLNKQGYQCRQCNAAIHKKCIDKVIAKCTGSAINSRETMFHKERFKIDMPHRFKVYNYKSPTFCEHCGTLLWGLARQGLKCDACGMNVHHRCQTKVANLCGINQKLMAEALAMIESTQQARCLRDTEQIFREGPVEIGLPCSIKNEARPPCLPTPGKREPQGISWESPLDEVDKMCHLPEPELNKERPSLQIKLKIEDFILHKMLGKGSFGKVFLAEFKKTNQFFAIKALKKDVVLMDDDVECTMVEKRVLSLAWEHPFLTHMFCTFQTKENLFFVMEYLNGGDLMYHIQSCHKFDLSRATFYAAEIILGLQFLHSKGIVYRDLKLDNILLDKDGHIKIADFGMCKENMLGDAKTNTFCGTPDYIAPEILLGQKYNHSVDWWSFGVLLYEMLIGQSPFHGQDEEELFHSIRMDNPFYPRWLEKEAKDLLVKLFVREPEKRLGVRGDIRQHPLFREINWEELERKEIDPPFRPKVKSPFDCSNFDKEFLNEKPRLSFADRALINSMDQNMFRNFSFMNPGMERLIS
How it was run: as §1

[13] = molecular target: EGFR(L747-S752del, P753S) (Homo sapiens, UniProt P00533, DEL747-752/P753S)
How it was run: as §1

[14] = molecular target: FLT3(ITD,F691L) (Homo sapiens, UniProt P36888, F691L/ITD)
How it was run: as §1

[15] = molecular target: T4, SgK110 (Homo sapiens, UniProt P0C264)
T4 construct: gene SBK3
How it was run: as §1

[16] = molecular target: T5, GCN2(Kin.Dom.2,S808G) (Homo sapiens, UniProt Q9P2K8, S808G)
T5 construct: gene EIF2AK4; Kin.Dom.2
T5 sequence (Q9P2K8 whole entry S808G): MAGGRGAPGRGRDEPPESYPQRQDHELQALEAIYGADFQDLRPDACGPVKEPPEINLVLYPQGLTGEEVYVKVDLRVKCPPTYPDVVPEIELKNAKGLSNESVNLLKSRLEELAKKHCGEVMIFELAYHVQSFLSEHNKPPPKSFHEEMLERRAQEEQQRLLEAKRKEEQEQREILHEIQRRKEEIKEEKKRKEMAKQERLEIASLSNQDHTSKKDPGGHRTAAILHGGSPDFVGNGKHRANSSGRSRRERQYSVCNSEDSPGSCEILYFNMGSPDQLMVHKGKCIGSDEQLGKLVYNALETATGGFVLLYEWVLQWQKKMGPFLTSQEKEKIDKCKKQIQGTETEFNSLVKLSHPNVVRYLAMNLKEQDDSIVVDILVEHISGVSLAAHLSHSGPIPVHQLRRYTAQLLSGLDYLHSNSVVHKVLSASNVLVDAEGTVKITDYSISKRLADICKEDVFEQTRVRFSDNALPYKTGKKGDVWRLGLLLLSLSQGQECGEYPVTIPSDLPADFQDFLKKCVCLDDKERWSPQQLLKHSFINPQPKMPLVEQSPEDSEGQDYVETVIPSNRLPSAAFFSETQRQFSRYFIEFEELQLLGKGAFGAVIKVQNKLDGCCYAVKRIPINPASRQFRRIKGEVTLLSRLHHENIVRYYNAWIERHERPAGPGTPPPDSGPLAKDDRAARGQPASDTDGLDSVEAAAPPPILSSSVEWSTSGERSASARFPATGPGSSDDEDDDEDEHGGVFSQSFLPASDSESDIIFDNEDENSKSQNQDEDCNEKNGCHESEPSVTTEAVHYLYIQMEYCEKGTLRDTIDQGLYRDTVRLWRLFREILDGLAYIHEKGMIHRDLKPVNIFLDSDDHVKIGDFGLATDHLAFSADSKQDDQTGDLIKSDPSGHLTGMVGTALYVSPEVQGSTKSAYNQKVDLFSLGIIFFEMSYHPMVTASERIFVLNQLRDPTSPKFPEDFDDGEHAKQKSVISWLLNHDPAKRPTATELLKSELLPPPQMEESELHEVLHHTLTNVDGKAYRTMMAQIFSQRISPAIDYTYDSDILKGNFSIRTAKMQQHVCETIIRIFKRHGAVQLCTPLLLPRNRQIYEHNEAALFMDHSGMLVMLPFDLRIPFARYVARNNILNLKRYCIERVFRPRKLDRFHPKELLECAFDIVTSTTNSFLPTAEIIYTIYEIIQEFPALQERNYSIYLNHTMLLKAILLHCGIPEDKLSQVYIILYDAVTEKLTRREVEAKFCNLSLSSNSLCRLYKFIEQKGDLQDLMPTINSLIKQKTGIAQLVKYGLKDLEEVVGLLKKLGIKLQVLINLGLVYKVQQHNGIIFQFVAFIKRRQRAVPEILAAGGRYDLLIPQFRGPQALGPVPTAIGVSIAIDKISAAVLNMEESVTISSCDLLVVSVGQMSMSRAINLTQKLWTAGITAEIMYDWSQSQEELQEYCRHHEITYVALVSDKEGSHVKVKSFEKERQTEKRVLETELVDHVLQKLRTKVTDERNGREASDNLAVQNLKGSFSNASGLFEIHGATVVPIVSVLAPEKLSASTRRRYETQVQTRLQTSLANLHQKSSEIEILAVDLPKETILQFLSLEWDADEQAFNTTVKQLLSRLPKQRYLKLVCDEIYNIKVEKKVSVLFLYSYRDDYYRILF
How it was run: as §1

[17] = molecular target: LIMK2 (Homo sapiens, UniProt P53671)
How it was run: as §1

[18] = molecular target: SGK3 (Homo sapiens, UniProt Q96BR1)
Chain of SGK3 (Q96BR1 whole entry): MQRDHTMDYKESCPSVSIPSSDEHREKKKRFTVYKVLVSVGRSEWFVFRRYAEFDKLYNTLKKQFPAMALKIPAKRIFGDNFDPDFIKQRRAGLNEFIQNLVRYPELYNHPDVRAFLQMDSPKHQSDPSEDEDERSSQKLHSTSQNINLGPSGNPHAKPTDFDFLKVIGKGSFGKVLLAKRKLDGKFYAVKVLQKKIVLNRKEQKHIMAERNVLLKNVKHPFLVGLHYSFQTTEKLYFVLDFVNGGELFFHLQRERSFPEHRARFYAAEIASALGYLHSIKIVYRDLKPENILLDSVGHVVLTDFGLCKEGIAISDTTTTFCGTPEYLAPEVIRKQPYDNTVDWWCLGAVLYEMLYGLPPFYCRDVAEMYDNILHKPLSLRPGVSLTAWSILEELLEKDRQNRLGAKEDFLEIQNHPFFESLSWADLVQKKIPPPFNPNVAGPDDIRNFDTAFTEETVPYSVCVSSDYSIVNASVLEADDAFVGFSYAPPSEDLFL
How it was run: as §1

[19] = molecular target: PIP5K1C (Homo sapiens, UniProt O60331)
Chain of PIP5K1C (O60331 whole entry): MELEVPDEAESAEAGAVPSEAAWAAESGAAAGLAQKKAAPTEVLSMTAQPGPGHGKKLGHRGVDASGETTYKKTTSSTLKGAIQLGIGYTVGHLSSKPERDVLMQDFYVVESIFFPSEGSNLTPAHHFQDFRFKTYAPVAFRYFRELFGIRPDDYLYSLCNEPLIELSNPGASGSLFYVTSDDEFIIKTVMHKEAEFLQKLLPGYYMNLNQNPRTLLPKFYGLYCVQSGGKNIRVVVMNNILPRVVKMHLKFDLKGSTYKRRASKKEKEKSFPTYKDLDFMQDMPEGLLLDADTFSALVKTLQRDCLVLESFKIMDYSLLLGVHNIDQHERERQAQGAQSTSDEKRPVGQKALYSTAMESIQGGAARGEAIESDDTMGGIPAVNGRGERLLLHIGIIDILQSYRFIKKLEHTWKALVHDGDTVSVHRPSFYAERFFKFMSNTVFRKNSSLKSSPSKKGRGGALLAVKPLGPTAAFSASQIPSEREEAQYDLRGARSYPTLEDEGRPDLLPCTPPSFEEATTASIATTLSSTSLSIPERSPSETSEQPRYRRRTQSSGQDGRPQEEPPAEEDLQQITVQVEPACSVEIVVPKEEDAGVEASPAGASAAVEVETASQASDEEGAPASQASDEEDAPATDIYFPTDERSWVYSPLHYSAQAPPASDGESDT
How it was run: as §1

[20] = molecular target: T6, LOK (Homo sapiens, UniProt O94804)
T6 construct: gene STK10
How it was run: as §1

[21] = molecular target: BTK (Homo sapiens, UniProt Q06187)
How it was run: as §1

## C=C(C)[C@H]1CC=C(C)C(=O)C1 [S-carvone]
[1]
  remaining binding at 100 µM: 76%
[2]
  remaining binding at 100 µM: 55%
[3]
  remaining binding at 100 µM: 96%
[4]
  remaining binding at 100 µM: 62%
[5]
  remaining binding at 100 µM: 90%
[6]
  remaining binding at 100 µM: 90%
[7]
  remaining binding at 100 µM: 94%
[8]
  remaining binding at 100 µM: 46%
[9]
  remaining binding at 100 µM: 92%
[10]
  remaining binding at 100 µM: 84%
[11]
  remaining binding at 100 µM: 77%
[12]
  remaining binding at 100 µM: 75%
[13]
  remaining binding at 100 µM: 68%
[14]
  remaining binding at 100 µM: 71%
[15]
  remaining binding at 100 µM: 93%
[16]
  remaining binding at 100 µM: 63%
[17]
  remaining binding at 100 µM: 90%
[18]
  remaining binding at 100 µM: 81%
[19]
  remaining binding at 100 µM: 100%
[20]
  remaining binding at 100 µM: 87%
[21]
  remaining binding at 100 µM: 70%
